# Measured values taken from patent EP1517674B1, “PREPARATIONS FOR THE INTRANASAL APPLICATION OF SELECTED CGRP A[…] FROM AMINO ACIDS AND A METHOD FOR THEIR PRODUCTION” (Boehringer Ingelheim Pharma GmbH & Co. KG, priority 2002, dated 2003).
# Test: Stability test of higher-concentration nasal spray solutions (hydrochloride in aqueous solution, packed in aluminium pouch)
# Format: physicochemical
# Settings: for Gehalt an Wirkstoff (A): as free base
# Procedure: Stabilitätsprüfung höher konzentrierter erfindungsgemäßer Nasalspray-Lösungen:
# Die nachfolgende Tabelle zeigt, dass die oxidative Zersetzung des nachstehend aufgeführten Wirkstoffs
# Die zum Teil (insbesondere bei 40°C) hohe Gesamtzersetzung beruht auf Hydrolyse.
# Der in der Tabelle 1 angegebene Gehalt an Wirkstoff (A) bezieht sich jeweils auf die ursprünglich eingewogene freie Base.
# [1] = Wirkstoff-Konzentration 15 %, 3-Monats-Wert, 25°C, 129600 min
# [2] = Wirkstoff-Konzentration 15 %, 3-Monats-Wert, 40°C, 129600 min
# [3] = Wirkstoff-Konzentration 15 %, 6-Monats-Wert, 25°C, 259200 min
# [4] = Wirkstoff-Konzentration 15 %, 6-Monats-Wert, 40°C, 259200 min
# [5] = Wirkstoff-Konzentration 15 %, 6-Wochen-Wert, 25°C, 60480 min
# [6] = Wirkstoff-Konzentration 15 %, 6-Wochen-Wert, 40°C, 60480 min
# [7] = Wirkstoff-Konzentration 15 %, Anfangswert
# [8] = Wirkstoff-Konzentration 20 %, 3-Monats-Wert, 25°C, 129600 min
# [9] = Wirkstoff-Konzentration 20 %, 3-Monats-Wert, 40°C, 129600 min
# [10] = Wirkstoff-Konzentration 20 %, 6-Monats-Wert, 25°C, 259200 min
# [11] = Wirkstoff-Konzentration 20 %, 6-Monats-Wert, 40°C, 259200 min
# [12] = Wirkstoff-Konzentration 20 %, 6-Wochen-Wert, 25°C, 60480 min
# [13] = Wirkstoff-Konzentration 20 %, 6-Wochen-Wert, 40°C, 60480 min
# [14] = Wirkstoff-Konzentration 20 %, Anfangswert
# [15] = Wirkstoff-Konzentration 30 %, 3-Monats-Wert, 25°C, 129600 min
# [16] = Wirkstoff-Konzentration 30 %, 3-Monats-Wert, 40°C, 129600 min
# [17] = Wirkstoff-Konzentration 30 %, 6-Monats-Wert, 25°C, 259200 min
# [18] = Wirkstoff-Konzentration 30 %, 6-Monats-Wert, 40°C, 259200 min
# [19] = Wirkstoff-Konzentration 30 %, 6-Wochen-Wert, 25°C, 60480 min
# [20] = Wirkstoff-Konzentration 30 %, 6-Wochen-Wert, 40°C, 60480 min
# [21] = Wirkstoff-Konzentration 30 %, Anfangswert
smiles,measurement,setting,value
"NCCCC[C@H](NC(=O)[C@@H](Cc1cc(Br)c(O)c(Br)c1)NC(=O)N1CCC(N2Cc3ccccc3NC2=O)CC1)C(=O)N1CCN(c2ccncc2)CC1 [(A), 1-[N^2-[3,5-Dibrom-N-[[4-(3,4-dihydro-2(1 H)-oxochinazolin-3-yl)-1-piperidinyl]-carbonyl]-D-tyrosyl]-L-lysyl]-4-(4-pyridinyl)-piperazin]",Gesamt-Zersetzung,[1],"1,69%"
same,Zersetzung durch Oxidation,[1],"0,64%"
same,Gehalt an Wirkstoff (A),"Wirkstoff-Konzentration 15 %, 3-Monats-Wert, 25°C","147,7mg/ml"
same,Gesamt-Zersetzung,[2],"8,22%"
same,Zersetzung durch Oxidation,[2],"0,55%"
same,Gehalt an Wirkstoff (A),"Wirkstoff-Konzentration 15 %, 3-Monats-Wert, 40°C","139,4mg/ml"
same,Gesamt-Zersetzung,[3],"2,07%"
same,Zersetzung durch Oxidation,[3],"0,82%"
same,Gehalt an Wirkstoff (A),"Wirkstoff-Konzentration 15 %, 6-Monats-Wert, 25°C","147,7mg/ml"
same,Gesamt-Zersetzung,[4],15.33%
same,Zersetzung durch Oxidation,[4],"0,78%"
same,Gehalt an Wirkstoff (A),"Wirkstoff-Konzentration 15 %, 6-Monats-Wert, 40°C","131,7mg/ml"
same,Gesamt-Zersetzung,[5],"1,60%"
same,Zersetzung durch Oxidation,[5],"0,72%"
same,Gehalt an Wirkstoff (A),"Wirkstoff-Konzentration 15 %, 6-Wochen-Wert, 25°C","148,1mg/ml"
same,Gesamt-Zersetzung,[6],"4,46%"
same,Zersetzung durch Oxidation,[6],"0,52%"
same,Gehalt an Wirkstoff (A),"Wirkstoff-Konzentration 15 %, 6-Wochen-Wert, 40°C","142,3mg/ml"
same,Gesamt-Zersetzung,[7],"1,23%"
same,Zersetzung durch Oxidation,[7],"0,59%"
same,Gehalt an Wirkstoff (A),[7],"148,6mg/ml"
same,Gesamt-Zersetzung,[8],"1,50%"
same,Zersetzung durch Oxidation,[8],"0,53%"
same,Gehalt an Wirkstoff (A),"Wirkstoff-Konzentration 20 %, 3-Monats-Wert, 25°C","202,8mg/ml"
same,Gesamt-Zersetzung,[9],"8,23%"
same,Zersetzung durch Oxidation,[9],"0,47%"
same,Gehalt an Wirkstoff (A),"Wirkstoff-Konzentration 20 %, 3-Monats-Wert, 40°C","191,4mg/ml"
same,Gesamt-Zersetzung,[10],"1,99%"
same,Zersetzung durch Oxidation,[10],"0,77%"
same,Gehalt an Wirkstoff (A),"Wirkstoff-Konzentration 20 %, 6-Monats-Wert, 25°C","201,8m/ml"
same,Gesamt-Zersetzung,[11],"14,61%"
same,Zersetzung durch Oxidation,[11],"0,74%"
same,Gehalt an Wirkstoff (A),"Wirkstoff-Konzentration 20 %, 6-Monats-Wert, 40°C","182,8mg/ml"
same,Gesamt-Zersetzung,[12],"1,09%"
same,Zersetzung durch Oxidation,[12],"0,54%"
same,Gehalt an Wirkstoff (A),"Wirkstoff-Konzentration 20 %, 6-Wochen-Wert, 25°C","198,7mg/ml"
same,Gesamt-Zersetzung,[13],"3,97%"
same,Zersetzung durch Oxidation,[13],"0,55%"
same,Gehalt an Wirkstoff (A),"Wirkstoff-Konzentration 20 %, 6-Wochen-Wert, 40°C","192,1mg/ml"
same,Gesamt-Zersetzung,[14],"1,27%"
same,Zersetzung durch Oxidation,[14],"0,56%"
same,Gehalt an Wirkstoff (A),[14],"197,9mg/ml"
same,Gesamt-Zersetzung,[15],"1,48%"
same,Zersetzung durch Oxidation,[15],"0,60%"
same,Gehalt an Wirkstoff (A),"Wirkstoff-Konzentration 30 %, 3-Monats-Wert, 25°C",270 mg/mL
same,Gesamt-Zersetzung,[16],7.81%
same,Zersetzung durch Oxidation,[16],"0,59%"
same,Gehalt an Wirkstoff (A),"Wirkstoff-Konzentration 30 %, 3-Monats-Wert, 40°C",260 mg/mL
same,Gesamt-Zersetzung,[17],"2,04%"
same,Zersetzung durch Oxidation,[17],"0,91%"
same,Gehalt an Wirkstoff (A),"Wirkstoff-Konzentration 30 %, 6-Monats-Wert, 25°C",273 mg/mL
same,Gesamt-Zersetzung,[18],"13,36%"
same,Zersetzung durch Oxidation,[18],"0,84%"
same,Gehalt an Wirkstoff (A),"Wirkstoff-Konzentration 30 %, 6-Monats-Wert, 40°C",246 mg/mL
same,Gesamt-Zersetzung,[19],"1,19%"
same,Zersetzung durch Oxidation,[19],"0,62%"
same,Gehalt an Wirkstoff (A),"Wirkstoff-Konzentration 30 %, 6-Wochen-Wert, 25°C",264 mg/mL
same,Gesamt-Zersetzung,[20],"3,95%"
same,Zersetzung durch Oxidation,[20],"0,58%"
same,Gehalt an Wirkstoff (A),"Wirkstoff-Konzentration 30 %, 6-Wochen-Wert, 40°C",260 mg/mL
same,Gesamt-Zersetzung,[21],"1,20%"
same,Zersetzung durch Oxidation,[21],"0,56%"
same,Gehalt an Wirkstoff (A),[21],269 mg/mL
same,oxidative Zersetzung,"hydrochloride in aqueous solution, over a long period",praktisch unverändert
